Structures can show the parent of a compound that is named as a salt. Where two headings read alike, the source gives them in different places.
How the values were obtained:
[1] = tested on: mouse spleen cells activated with Con A or LPS; assay: Proliferation of mitogen-stimulated mouse spleen cells (3[H]-thymidine incorporation); assay type: cell-based; conditions: Con A 2.5 μg/ml or LPS 10 μg/ml, 48 hours
Procedure: FIG. 4A illustrates spleen cells (2×10^5) that were activated with Con A (left; 2.5 μg/ml) or LPS (right; 10 μg/ml) in the presence of indicated concentrations of C-MED-100®, QAA or QA. Proliferation was assayed after 48 hours by ^3[H]-thymidine incorporation in triplicate cultures. Results from one representative experiment out of three are presented as mean values±S.D.
Cell cultures: Raji human Burkitt's lymphoma (CCL-86), Jurkat human acute T-cell leukemia (TIB-152), 70Z/3 mouse pre-B lymphocyte cell line (TIB-158), or mouse spleen cells were used in the experiments. The cells were cultured in RPMI medium (Life Technologies) supplemented with 10% FCS, 10 mM HEPES buffer, antibiotics, 50 μM 2-mercaptoethanol and 1 mM sodium pyruvate (all supplements from Life Technologies) at 37° C., 5% CO2. The number of Raji cells in duplicate cultures were determined with a Coulter Z1 cell counter (Beckman Coulter Inc, Fullerton, Calif., USA) three times each. The number of viable and dead cells were determined using trypan blue exclusion, by counting three independent samples from duplicate cultures. […] Proliferation was detected by measuring thymidine incorporation after a 4 hours pulse with 1 μCi ^3[H]-thymidine (Amersham Pharmacia).

HL-60 W6899 cells = assay: HL-60 bioassay, microculture 5 days, clonogenicity estimated by MTT assay (Table 1); assay type: cell-based, human; conditions: Homo sapiens, HL-60, parameters are approximations
Procedure: An assay of biological activity of C-MED-100®'s active ingredient is prepared as follows: HL-60 […] cells are exposed in microculture at 5000 cells per well (96-well plates) for 5 days at 37 ? C. in a CO2 incubator. After incubation, the cells are washed with saline and clonogenicity estimated by MTT assay.

Jurkat T cells = assay: Jurkat T cell proliferation (data not shown); assay type: cell-based, human
C57BL/6 mice = assay: Mice treated via drinking water for 21 days: spleen cells, blood cells, weights; assay type: in vivo, mouse
Procedure: Mice were treated with indicated concentrations of QA or C-MED-100® in the drinking water for 21 days, sacrificed and absolute number of spleen cells counted using trypan blue exclusion. The presented data are mean cell numbers±S.D. pooled from five experiments (water, n=21; C-MED-100® 4 mg/ml, n=24; C-MED-100® 8 mg/ml, n=9; QA 1 mg/ml, n=9; QA 2 mg/ml, n=22; QA 4 mg/ml, n=10). Statistically significant differences compared to control mice supplemented with tap water are indicated. […] The data are presented as the mean number of cells/ml±S.D. from five experiments (water, n=21; C-MED-100® 4 mg/ml, n=24; C-MED-100® 8 mg/ml, n=9; QA 1 mg/ml, n=9; QA 2 mg/ml, n=22; QA 4 mg/ml, n=10). Statistically significant differences compared to control mice supplemented with tap water are indicated. Materials and Methods: C57BL/6 females were bought from […], Denmark and used in experiments at an age of 6-10 weeks. The animals were kept in a SPF facility at Lund University, Lund, Sweden. The use of laboratory animals complies with the guidelines of the European Community and was approved of by the local ethical committee. In vivo treatment: Mice were fed with C-MED-100® and QA (Sigma-Aldrich), dissolved in autoclaved tap water at indicated concentrations, for 21 days. The drinking water bottles were changed every third day. The animals were then sacrificed, the spleens removed and blood samples collected. The blood samples were analyzed in a Sysmex KX-21N cytometer (Sysmex Corporation, Kobe, Japan).

| Compound | proliferation of mitogen-stimulated mouse lymphocytes [1] | IC50 (HL-60 W6899 cells; after 1% aqueous ammonia, read-out: Bioassay after 1% aqueous ammonia IC50 HL-60 cells) [µg/mL] | IC50 (HL-60 W6899 cells; read-out: Bioassay efficacy using IC50 in HL-60 cells) [µg/mL] | proliferation of Jurkat T cells (Jurkat T cells) | number of spleen cells (C57BL/6 mice; 2 mg/ml in drinking water, 21 days) | body weight (C57BL/6 mice; 4 mg/ml in drinking water) | WBC and blood lymphocytes in peripheral blood (C57BL/6 mice; 4 mg/ml in drinking water, vs normal control animals) | absolute numbers of lymphocyte subsets CD4+ T cells, CD8+ T cells and B cells in spleen (C57BL/6 mice; drinking water 21 days (FIG. 6B)) | WBC, blood lymphocytes, RBC in peripheral blood (C57BL/6 mice; drinking water 21 days, indicated concentrations) |
| --- | --- | --- | --- | --- | --- | --- | --- | --- | --- |
| O=C(O)[C@]1(O)C[C@@H](O)[C@@H](O)[C@H](O)C1 [QAA, quinic acid ammonium salt] | inhibited cell proliferation in a dose dependent manner | – | – | – | – | – | – | – | – |
| O=C(O)C1(O)CC(O)C(O)C(O)C1 (stereo not drawn) [QA, 1,3,4,5-tetrahydroxy-cyclohexanecarboxylic acid] | – | > 3000 | > 3000 | did not inhibit proliferation | significantly increased number of spleen cells | significantly reduced | this increase was significant | this was also the case | increasing number of WBC and blood lymphocytes |
